# Assay results: article PMC9652372, “Glycolytic flux control by drugging phosphoglycolate phosphatase” (Nature Communications, 2022)
# “And” between values parts separate entries of the source, which are not always exact repeats. Identical values can stand only once.
# System: HT1080 cells
# Assay: NMR quantification of cellular metabolites; as to 1-Methylnicotinamide (NMR metabolite level): unit not given here; as to Acetic acid (NMR metabolite level): unit not given here; as to Glutathione (NMR metabolite level): unit not given here; as to Glycerol 3-phosphate (NMR metabolite level): unit not given here; as to Glycine (NMR metabolite level): unit not given here; as to L-Lactic acid (NMR metabolite level): unit not given here; as to L-Lysine (NMR metabolite level): unit not given here; as to L-Tyrosine (NMR metabolite level): unit not given here; as to L-Valine (NMR metabolite level): unit not given here; as to Phosphocreatine (NMR metabolite level): unit not given here; as to Pyroglutamate (NMR metabolite level): unit not given here; as to Taurine (NMR metabolite level): unit not given here; as to Tryptophan (NMR metabolite level): unit not given here
# Assay type: cell-based, human
smiles,measurement,setting,value
O=C(Nc1ccccc1C(=O)O)c1ccc(Oc2ccc(C(=O)Nc3ccccc3C(=O)O)cc2)cc1 [CP1],change of acetate levels,"HT1080 cells, 3 h, 33 µM CP1",−42%
same,change of alanine levels,"HT1080 cells, 3 h, 33 µM CP1",−52%
same,change of lactate levels,"HT1080 cells, 3 h, 33 µM CP1",−45%
same,change of pyruvate levels,"HT1080 cells, 3 h, 33 µM CP1",−10%
same,1-Methylnicotinamide (NMR metabolite level),"T3: 3h CP1-treated, Exp #1-5",0.0004582 and 0.0004235 and 0.0007003 and 0.0006519 and 0.0004828
same,2-Hydroxyglutarate (NMR metabolite level),"T3: 3h CP1-treated, Exp #1-5",0.01261 and 0.01491 and 0.01314 and 0.01427 and 0.01273
same,ATP (NMR metabolite level),"T3: 3h CP1-treated, Exp #1-5",0.001497 and 0.001391 and 0.001868 and 0.001572 and 0.001599
same,Acetic acid (NMR metabolite level),"T3: 3h CP1-treated, Exp #1-5",0.004551 and 0.004658 and 0.004836 and 0.004678 and 0.004285
same,Choline (NMR metabolite level),"T3: 3h CP1-treated, Exp #1-5",0.0005498 and 0.0005142 and 0.0005336 and 0.0006902 and 0.0006337
same,Creatine (NMR metabolite level),"T3: 3h CP1-treated, Exp #1-5",0.00675 and 0.006504 and 0.00667 and 0.008321 and 0.006277
same,D-Glucose (NMR metabolite level),"T3: 3h CP1-treated, Exp #1-5",0.1212 and 0.1286 and 0.1124 and 0.1017 and 0.1229
same,Dimethylamine (NMR metabolite level),"T3: 3h CP1-treated, Exp #1-5",0.03604 and 0.03364 and 0.02538 and 0.0283 and 0.03615
same,Formic acid (NMR metabolite level),"T3: 3h CP1-treated, Exp #1-5",0.001497 and 0.001482 and 0.001868 and 0.001994 and 0.001569
same,Fumaric acid (NMR metabolite level),"T3: 3h CP1-treated, Exp #1-5",0.0003054 and 0.0002722 and 0.0003001 and 0.0003451 and 0.0003319
same,Glutathione (NMR metabolite level),"T3: 3h CP1-treated, Exp #1-5",0.01109 and 0.01041 and 0.01101 and 0.01265 and 0.01144
same,Glycerol 3-phosphate (NMR metabolite level),"T3: 3h CP1-treated, Exp #1-5",0.005205 and 0.004086 and 0.005958 and 0.005982 and 0.004016
same,Glycine (NMR metabolite level),"T3: 3h CP1-treated, Exp #1-5",0.01387 and 0.01388 and 0.01587 and 0.01515 and 0.01301
same,Histidine (NMR metabolite level),"T3: 3h CP1-treated, Exp #1-5",0.001863 and 0.001573 and 0.001667 and 0.001611 and 0.00166
same,L-Alanine (NMR metabolite level),"T3: 3h CP1-treated, Exp #1-5",0.003726 and 0.003932 and 0.003735 and 0.003681 and 0.003651
same,L-Arginine (NMR metabolite level),"T3: 3h CP1-treated, Exp #1-5",0.003085 and 0.0036 and 0.003035 and 0.003183 and 0.004798
same,L-Aspartic acid (NMR metabolite level),"T3: 3h CP1-treated, Exp #1-5",0.006078 and 0.006201 and 0.007304 and 0.006941 and 0.006337
same,L-Glutamic acid (NMR metabolite level),"T3: 3h CP1-treated, Exp #1-5",0.03955 and 0.04114 and 0.04112 and 0.04632 and 0.04125
same,L-Glutamine (NMR metabolite level),"T3: 3h CP1-treated, Exp #1-5",0.1032 and 0.09634 and 0.112 and 0.1011 and 0.1019
same,L-Isoleucine (NMR metabolite level),"T3: 3h CP1-treated, Exp #1-5",0.008064 and 0.008046 and 0.007837 and 0.007708 and 0.008178
same,L-Lactic acid (NMR metabolite level),"T3: 3h CP1-treated, Exp #1-5",0.03287 and 0.03079 and 0.03432 and 0.03474 and 0.0328
same,L-Leucine (NMR metabolite level),"T3: 3h CP1-treated, Exp #1-5",0.008094 and 0.008077 and 0.008637 and 0.008321 and 0.007846
same,L-Lysine (NMR metabolite level),"T3: 3h CP1-treated, Exp #1-5",0.005651 and 0.005687 and 0.005569 and 0.005062 and 0.005432
same,L-Methionine (NMR metabolite level),"T3: 3h CP1-treated, Exp #1-5",0.002474 and 0.002571 and 0.002635 and 0.002454 and 0.002656
same,L-Phenylalanine (NMR metabolite level),"T3: 3h CP1-treated, Exp #1-5",0.004704 and 0.004749 and 0.004702 and 0.00464 and 0.004708
same,L-Threonine (NMR metabolite level),"T3: 3h CP1-treated, Exp #1-5",0.0135 and 0.01422 and 0.01357 and 0.01411 and 0.01304
same,L-Tyrosine (NMR metabolite level),"T3: 3h CP1-treated, Exp #1-5",0.004795 and 0.004537 and 0.004569 and 0.004755 and 0.004798
same,L-Valine (NMR metabolite level),"T3: 3h CP1-treated, Exp #1-5",0.007911 and 0.008379 and 0.00757 and 0.007631 and 0.008117
same,NAD+ (NMR metabolite level),"T3: 3h CP1-treated, Exp #1-5",0.001405 and 0.001331 and 0.001634 and 0.001764 and 0.001509
same,Phosphocreatine (NMR metabolite level),"T3: 3h CP1-treated, Exp #1-5",0.002352 and 0.00245 and 0.002668 and 0.002838 and 0.002474
same,Phosphorylcholine (NMR metabolite level),"T3: 3h CP1-treated, Exp #1-5",0.007361 and 0.007078 and 0.008004 and 0.008743 and 0.00688
same,Pyroglutamate (NMR metabolite level),"T3: 3h CP1-treated, Exp #1-5",0.007789 and 0.006927 and 0.008071 and 0.008015 and 0.007303
same,Pyruvate (NMR metabolite level),"T3: 3h CP1-treated, Exp #1-5",0.004887 and 0.004931 and 0.004602 and 0.004755 and 0.004949
same,Serine (NMR metabolite level),"T3: 3h CP1-treated, Exp #1-5",0.006414 and 0.007411 and 0.00707 and 0.007401 and 0.006729
same,Succinic acid (NMR metabolite level),"T3: 3h CP1-treated, Exp #1-5",0.001344 and 0.001543 and 0.001501 and 0.001841 and 0.001207
same,Taurine (NMR metabolite level),"T3: 3h CP1-treated, Exp #1-5",0.006506 and 0.007653 and 0.005636 and 0.009663 and 0.004858
same,Tryptophan (NMR metabolite level),"T3: 3h CP1-treated, Exp #1-5",0.0008552 and 0.0007865 and 0.0009671 and 0.0008436 and 0.0007846
same,UDP-N-Acetylglucosamine (NMR metabolite level),"T3: 3h CP1-treated, Exp #1-5",0.00171 and 0.001573 and 0.002001 and 0.002147 and 0.00178
